Values of other authors, collected in patent US11207270B2, “Controlled release dosage forms for high dose, water soluble and hygroscopic drug substances” (priority 2010, dated 2021).

Experiments:
[1] = test system: patients suffering from disorders of disturbed sleep, including narcolepsy; settings: human, in vivo
[2] = test system: non-narcoleptic patients with fibromyalgia
[3] = given orally, in man
[4] = test system: patients with hyperkinetic movement disorders including ethanol responsive myoclonus and essential tremor; settings: 5 patients

Compound | plasma levels (immediate release formulation, dose between about 2.25 g and 4.5 g, within 4 hours of ingestion) | Cmax/Cmin ratio (two separate immediate release doses, over a six hour period) | Stage 3-4 (slow wave) sleep [1] | nocturnal awakenings [1] | total nocturnal sleep time [1] | estimates of overall wellness ([2]; before and after treatment) | subjective assessments of levels of pain and fatigue ([2]; over all 4 weeks of treatment compared to baseline) | plasma half-life [3] | blinded ratings of ethanol responsive myoclonus and tremor [4] | tolerability [4]
O=C(O)CCCO [GHB, gamma-hydroxy butyrate] | below 10 ug/mL | greater than 4 | increase | decrease | increase | significant improvement | significant improvements | – | – | –
O=C([O-])CCCO.[Na+] [sodium oxybate] | – | – | – | – | – | – | – | about 45 minutes | dose-dependent improvements | tolerated at doses that provided clinical benefit
